Laboratory results from patent US20080226714A1, “SUSTAINED-RELEASE TABLET FORMULATIONS OF PIPERAZINE-PIPERIDINE ANTAGONISTS AND AGONISTS OF THE 5-HT1A RECEPTOR HAVING ENHANCED INTESTINAL DISSOLUTION” (WYETH, priority 2007, published 2008).
Converted amounts (≈) assume the structure as drawn. Read-outs that look alike come from different tables or passages of the source.

Columns and labels:
physchem = type: physicochemical
Excerpt: (§1) Pharmaceutical compounds that interact with the 5-HT1A receptor are useful to treat a wide variety of central nervous system disorders, such as cognition disorders, anxiety disorders, and depression. Certain piperazine-piperidine compounds have shown utility as 5-HT1A receptor antagonists, agonists and partial antagonist/agonists. See, for example, U.S. Patent Publication No. 2007/0027160, filed Jun. 9, 2006, entitled “piperazine-Piperidine Antagonists And Agonists Of The 5-HT1A Receptor”. […] During development of 5-fluoro-8-{4-[4-(6-methoxyquinolin-8-yl)piperazin-1-yl]piperidin-1-yl}quinoline, it was discovered that the compound has a pH-dependent solubility. […] Therefore, the rate of systemic input of 5-fluoro-8-{4-[4-(6-methoxyquinolin-8-yl)piperazin-1-yl]piperidin-1-yl}quinoline will be dependent on the dissolution or solubilization of the compound. […] A controlled-release formulation to reduce the dose frequency of 5-fluoro-8-{4-[4-(6-methoxyquinolin-8-yl)piperazin-1-yl]piperidin-1-yl}quinoline would be beneficial for improving compliance and convenience. However, this type of formulation presents the challenge of maintaining the dissolution of the compound in the lower gastrointestinal tract where solubility is very low.

[1] = Permeability characteristics in animal studies; type: in vivo
Excerpt: as §1

[2] = Preclinical half-life after IV bolus; type: in vivo; conditions: Sprague-Dawley rats, 0.3 mg/kg IV bolus
Excerpt: See, for example, U.S. Patent Publication No. 2007/0027160, filed Jun. 9, 2006, entitled “piperazine-Piperidine Antagonists And Agonists Of The 5-HT1A Receptor”.

Row | Structure (SMILES) | solubility (physchem; free base, water, read-out: water solubility) | solubility (physchem; pH 2.4, aqueous buffer, pH about 2.4, read-out: solubility) | solubility (physchem; pH 6, aqueous buffer, pH levels greater than about 6, read-out: solubility) | solubility (physchem; pH 8.9, aqueous buffer, pH about 8.9, read-out: solubility) | permeability [1] | t1/2 [2] | solubility (physchem; trisuccinate salt, pH greater than about six) | solubility (physchem; water, trisuccinate salt, aqueous, read-out: aqueous solubility)
1 | COc1cc(N2CCN(C3CCN(c4ccc(F)c5cccnc45)CC3)CC2)c2ncccc2c1 [5-fluoro-8-{4-[4-(6-methoxyquinolin-8-yl)piperazin-1-yl]piperidin-1-yl}quinoline] | ~0.04 µg/mL (≈ 0.0848 µM) | ~2200 µg/mL (≈ 4670 µM) | < 1 µg/mL | ~0.036 µg/mL (≈ 0.0763 µM) | high permeability | about one | – | –
2 | COc1cc(N2CCN(C3CCN(c4ccc(F)c5cccnc45)CC3)CC2)c2ncccc2c1.O=C(O)CCC(=O)O.O=C(O)CCC(=O)O.O=C(O)CCC(=O)O [5-fluoro-8-{4-[4-(6-methoxyquinolin-8-yl)piperazin-1-yl]piperidin-1-yl}quinoline trisuccinate] | – | – | – | – | – | – | sub-microgram per milliliter level | ~1000 µg/mL
